The values below come from patent US11129782B2, “Derivatives of PPD useful for coloring hair and skin” (National University of Singapore, priority 2017, dated 2021).

Structures are written as SMILES. Several values for one entry are separate records, joined by “and”; a condition that tells them apart may be missing. Equal values may be shown once. Read-outs that look alike come from different tables or passages of the source.

For data set [1], the system named is cysteine peptide (Ac-RFAACAA-COOH). Put plainly: Direct Peptide Reactivity Assay, cysteine peptide. To be noted: for % of Cysteine depletion, Avg / % of Cysteine depletion, Rep 2 / % of Cysteine depletion, Rep 3 / Reactivity Class: 1:10; for % of Cysteine depletion, Rep 1: peptide 0.02 mM : test chemical 0.2 mM (1:10); for Reactivity Class: cysteine. On the procedure:
For cysteine DPRA, an additional step was performed.
(§1) The mass spectrometric analysis was performed by use of a AB SCIEX QTRAP 5500 tandem mass spectrometry (MS/MS) system (AB SCIEX, Framingham, Mass., USA) operating in triple quadrupole positive mode (ESI+) equipped with an AB Sciex Turbo Ion Spray interface. Acquisition and analysis of data were performed with Analyst software ver. 1.6.2 (Applied Biosystems).

The next data set relates to IL-8. Put plainly: IL-8 ELISA on THP-1 cell supernatants. The conditions noted are these: preliminary ELISA, CV75. In kind it is cell-based, human. The protocol:
(§2) For cytokine profiling in THP-1, supernatants from wells were collected and then used for cytokine analysis by a Chemokine immunosorbent assay Bio-legend ELISA Max kit. The levels of available IL-8 protein from THP-1 cell supernatants was estimated using this kit which are regulated upon activation of THP-1 model. Surface receptor expression of human CD-86, CD-54, MHC-I and IL-T3 were analyzed by flow cytometry using standard BD FACS analyzer with PE and FITC fluorescent labeled antibodies from Biolegend and e Bioscience.
(§3) In order to understand the effect of modified PPD hairdyes on THP-1 immune sensitization, a certain degree of Cytotoxicity at CV75% viable where 25% cell death is required before evaluation of supernatants in THP-1 models for expression of cytokine IL-8 and receptor expression of CD86, CD54, MHC-I and IL-T3 surface receptors upon treatment with standard PPD and modified hair dye compounds. Most allergens show a specific dose-dependent alteration of CD86 and/or CD54 expression or secretion of cytokine profiles. But depending on chemical, the alteration pattern may vary.
In general terms: ELISA stands for enzyme-linked immunosorbent assay.

For another data set, the system named is HaCaT cells. Put plainly: In vitro cell cytotoxicity (MTT) assay on HaCaT cells. In kind it is cell-based, human. The conditions noted are these: for IC50: 72 h incubation, MTT. The method in brief: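 HaCaT keratinocytes seeded at 5×10^3/well, after 24 h exposed 72 h to test compounds serially diluted from 500 μM to 1.9 μM in 10% FBS DMEM. MTT (1 mg/ml, 4 h) read at 570 nm; viability expressed as percent of untreated control.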

The subject of data set [2] is cysteine and lysine peptides. Put plainly: Direct Peptide Reactivity Assay, mean of cysteine and lysine depletion (FIG. 12).
Experimental: (§4) Direct reactivity of test chemical to lysine-based synthetic peptide was determined in reactions containing 100 mM ammonium acetate buffer (pH 10.2). The final concentration of lysine peptide was 20 μM in a final reaction volume of 0.3 ml. Direct reactivity of test chemicals to cysteine-based synthetic peptide was determined in 100 mM Sodium Phosphate buffer of pH 7.5.
(§5) For the DPRA, incubation mixtures were prepared using each peptide to test compound ratios of both 1:10 for cysteine peptide and 1:50 for lysine peptide, according to Table 19. […] Sample reactions were initiated by adding 3 μl of a test chemical stock solution for cysteine and 15 μl stock solution for lysine peptide. These mixtures were then placed in a temperature-controlled shaking incubator at 25° C.
(§6) At each time point (20 mins/24 hours), the incubation mixtures were quenched with 75 μL of 95% ACN/H2O, and mildly vortexed (600 rpm, 3 seconds). For Lysine DPRA experiment, 10 μl of aliquot was diluted with 2% ACN/H2O, vortexed and stored at −80° C. until analysis by LC-MS/MS. For cysteine DPRA, an additional step was performed. 10 μl of cysteine reaction mixture, at time points 20 min and 24 h were diluted in 180 μl of 2% ACN/H2O. To which, a 10 μl aliquot of a 16 mM dithiothreitol solution (prepared in water) was then added, and samples were heated in a 45° C. oven for 30 min, then allowed to cool to room temperature prior to analysis. The peptide depletion (PD) percentage was obtained using this equation.
The nature of data set [3]: Skin permeation in vertical Franz diffusion cells. In kind it is in vitro ADME, porcine. The conditions noted are these: 8 h; for Penetration profile PPD vs derivatives (times less than PPD): ratio of PPD penetration to that of the compound; for recovery at 8 h, 1 % w/v: pig, read-out: % Parent compound Recovery (mean). Put shortly: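 Dermatomed porcine ear skin (~1.0 mm, barrier checked by TEWL) in vertical Franz cells at 37 °C, 0.64 cm^2 area, PBS receptor, donor of 1% w/v solutions in argon-purged water (n=3). Receptor sampled over 8 h with mass balance, LCMS quantification; flux and permeability coefficients from steady-state Fick's law fits.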

Data set [4] deals with lysine peptide (Ac-RFAAKAA-COOH). Put plainly: Direct Peptide Reactivity Assay, lysine peptide. The conditions noted are these: for % of Lysine depletion, Avg / % of Lysine depletion, Rep 2 / % of Lysine depletion, Rep 3 / Reactivity Class: 1:50; for % of Lysine depletion, Rep 1: peptide 0.02 mM : test chemical 1 mM (1:50); for Reactivity Class: lysine. On the procedure: as §1

A short description of data set [5]: Solubility observed when preparing dyes. The class given is physicochemical. To be noted: water / organic solvents.
The next data set relates to ILT3. Put plainly: ILT3 surface expression on THP-1 by flow cytometry. In kind it is cell-based, human. To be noted: in comparison to DCNB. On the procedure:
as §2, §3
Background: In flow cytometry, cells or beads pass a laser one at a time.

For a further data set, the system named is CD54. Put plainly: CD54 surface expression on THP-1 by flow cytometry. In kind it is cell-based, human. On the procedure:
as §2, §3

The subject of another data set is CD86. Put plainly: CD86 surface expression on THP-1 by flow cytometry. In kind it is cell-based, human. On the procedure: as §2, §3
Data set [6] has as its system cysteine and lysine peptides.
Experimental: as §4, §5, §6

On to `Nc1ccc(Nc2ccc(N)cc2)cc1` [PPD derivative 1, 4,4′-Diaminodiphenylamine], for which, in data set [1] (20 min), the “% of Cysteine depletion, Avg” value turned out to be 41.5%; the “% of Cysteine depletion, Rep 2” value was 40.5%; the “% of Cysteine depletion, Rep 3” value amounted to 41.5%; the “% of Cysteine depletion, Rep 1” value is reported as 42.6%. In addition, the “Reactivity Class” value in data set [1] (20 min) is on record as “Moderate”. For the same compound, in data set [1] (24 h), the “% of Cysteine depletion, Avg” value was 69.4%; the “% of Cysteine depletion, Rep 2” value was found to be 69.6%; the “% of Cysteine depletion, Rep 3” value is given as 69.3%; the “% of Cysteine depletion, Rep 1” value worked out at 69.5%. The “Reactivity Class” value in [1] (24 h) is “High”. Further, the IL-8 expression entry with IL-8 is given as “increased expression”. Moreover, in the data set on HaCaT cells, the “Fold increase in IC50 compared to PPD” value is listed as ~2 fold and the IC50 (in general, the point on the concentration scale where inhibition reaches its midpoint) was found to be 49.3 µM. In addition, the “Sensitizing potential predicted from mean peptide depletion” value (“Sensitizing potential predicted” for short) in data set [2] (cysteine 1:10 / lysine 1:50 model) was “high sensitizing agents”. In data set [3] (1% W/V applied), the “% Parent compound Penetrated (mean)” value is on record as 0.00314%, the “% Parent compound Recovery (mean)” value is 93.85% and the “% converted to metabolite (mean)” value is listed as 0.0104%. In addition, in data set [3] (listed as PPD 1), the “Penetration profile PPD vs derivatives (times less than PPD)” value (“Penetration profile PPD vs derivatives” below) is 51 and 51.6. In data set [4] (20 min), the “% of Lysine depletion, Avg” value stood at 7.79%; the “% of Lysine depletion, Rep 2” value worked out at 6.48%; the “% of Lysine depletion, Rep 3” value was found to be 9.01%; the “% of Lysine depletion, Rep 1” value is reported as 7.89%. Moreover, the “Reactivity Class” value in data set [4] (20 min) was “Low”. In [4] (24 h), the “% of Lysine depletion, Avg” value came out at 23.8%; the “% of Lysine depletion, Rep 2” value turned out to be 28%; the “% of Lysine depletion, Rep 3” value was 22.3%; the “% of Lysine depletion, Rep 1” value was 21%. Also, the “Reactivity Class” value in data set [4] (24 h) was “Moderate”. For the same compound, the “Solubility (in words)” value in data set [5] was “showed solubility in a mixture of 10% methanol in water”.

In the case of `CCCCCCOC(=O)c1cc(N)ccc1N` [PPD derivative 15, Hexyl-2,5-diaminobenzoate], the IL-8 expression result with IL-8 is given as “do not stimulate IL-8 expression”. For the same compound, the “ILT3 (inhibitory receptor) expression” value in the data set with ILT3 is reported as “increased”. Moreover, the “Improvement of cell viability in comparison to PPD 4” value in the data set on HaCaT cells was “about 5 times”. In addition, the IC50 in the data set on HaCaT cells (Homo sapiens, HaCaT, 72 h) came out at 160 µM. Also, in data set [3] (1% W/V applied), the “% Parent compound Penetrated (mean)” value stood at 0.0001%; the “% converted to metabolite (mean)” value was 0.0108%; the recovery at 8 h, 1 % w/v was 96.7%. For the same compound, in data set [3], the “Permeation less than PPD” value was “about 2 order of magnitude” and the “Penetration profile PPD vs derivatives” value came out at 1620. In addition, in the data set with CD54, the “Expression of CD54” value was “not stimulated”. The “Expression of CD86” value with CD86 is listed as “not stimulated”.

As to `Cc1ccc(NCc2ccc(-c3ccc(Nc4ccc(N)cc4)cc3)cc2)cc1` [PPD derivative 9, 4-Amino-4′-[(4-tolylaminomethyl)phenyl]diphenylamine], half-maximal inhibition with HaCaT cells (IC50) required 6.8 µM. Moreover, the Mean peptide depletion in data set [2] (mean of cysteine (1:10) and lysine (1:50), FIG. 12) is reported as 17.9%. In data set [6], the “Sensitizing potential predicted” value was “weak sensitizer”.

As to `CCCCCCOC(=O)c1cc(Nc2ccc(N)cc2)ccc1N` [PPD derivative 6, hexyl 2-amino-5-((4-aminophenyl)amino)benzoate], the IL-8 expression entry in the data set with IL-8 is recorded as “do not stimulate IL-8 expression”. Moreover, in the data set on ILT3, the “ILT3 (inhibitory receptor) expression” value was “increased”. This compound also showed an IC50 with HaCaT cells (Homo sapiens, HaCaT, 72 h) of 10.5 µM. In addition, in [3] (1% W/V applied), the “% Parent compound Penetrated (mean)” value turned out to be 0.00015%; the “% converted to metabolite (mean)” value came out at 0.01%; the recovery at 8 h, 1 % w/v turned out to be 95.4%. Besides, in data set [3], the “Permeation less than PPD” value is reported as “about 2 order of magnitude” and the “Penetration profile PPD vs derivatives” value was 1080. For the same compound, the “Expression of CD54” value in the data set on CD54 was “not stimulated”. Also, the “Expression of CD86” value in the data set on CD86 is given as “not stimulated”.

Regarding `Nc1ccc(Nc2ccc(Nc3ccc(Nc4ccc(N)cc4)cc3)cc2)cc1` [PPD derivative 8, 4,4′-Bis[(4-aminophenyl)amino]diphenylamine], in the data set on IL-8, the IL-8 expression result is “increased expression”. Inhibition in the data set with HaCaT cells was half-maximal at 6.92 µM (IC50). Further, the “Sensitizing potential predicted” value in data set [6] is reported as “high sensitizing agents”.
